A value given as a limit tells only on which side of the number the result lay.

The first test has as its system purified human Hsp90. The experiment in a line: Binding Assay: fluorescence polarization with BODIPY-labeled geldanamycin. The settings on record: 5 μM compound, BODIPY-GM 10 nM, Hsp90 30 nM. The procedure, abridged: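 Compounds in 2% DMSO final compete with 10 nM BODIPY-GM for 30 nM purified human Hsp90, incubated overnight at room temperature in pH 7.3 HEPES buffer containing Na2MoO4 and DTT. Polarization (mP, ex/em 485/530) normalized to DMSO gives percent inhibition; autofluorescence-confounded data excluded.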
What is called % Inhibition is the percentage by which the read-out fell short of the control. A lower % Inhibition goes with a response near the control. For `COc1ccc(OC)c(Sc2nc3c(N)ncn(CCc4ccccc4C)c-3n2)c1` [Example 70, 8-(2,5-dimethoxy-phenylsulfanyl)-3-(2-o-tolyl-ethyl)-3H-purin-6-ylamine], the “% Inhibition at 5 μM Compound Concentration” value (“% Inhibition” below) came to 7%.
On the same count and under the same terms, the figure for `COc1ccc(OC)c(Sc2nc3c(N)ncn(CCn4ccnc4)c-3n2)c1` [Example 336, 8-[(2,5-Dimethoxyphenyl)thio]-3-[2-(1H-imidazol-1-yl)ethyl]-3H-purin-6-amine] is 13.0%; for `COc1ccc(OC)c(Sc2nc3c(N)ncnc3n2CCc2cccc3ccccc23)c1` [Example 67, 8-(2,5-Dimethoxy-phenylsulfanyl)-9-(2-naphthalen-1-yl-ethyl)-9H-purin-6-ylamine] it is 56%; for `Nc1ncn(CCC2CCCCC2)c2nc(Sc3cc4c(cc3Br)OCO4)nc1-2` [Example 174, 8-(6-bromo-benzo[1,3]dioxol-5-ylsulfanyl)-3-(2-cyclohexyl-ethyl)-3H-purin-6-ylamine] it is 37%.
Turning to `Nc1ncn(Cc2ccccc2)c2nc(Sc3cc4c(cc3Br)OCO4)nc1-2` [Example 265, 3-Benzyl-8-[(6-bromo-1,3-benzodioxol-5-yl)thio]-3H-purin-6-amine], the “% Inhibition” value amounted to 20%.
As for `COc1ccc(OC)c(Sc2nc3c(N)ncnc3n2CCc2ccc(O)cc2)c1` [Example 76, 4-{2-[6-amino-8-(2,5-dimethoxy-phenylsulfanyl)-purin-9-yl]-ethyl}-phenol], the “% Inhibition” value is given as 6%.
Take `Nc1ncn(CCc2ccc(O)cc2)c2nc(Sc3cc4c(cc3Br)OCO4)nc1-2` [Example 301, 4-(2-{6-Amino-8-[(6-bromo-1,3-benzodioxol-5-yl)thio]-3H-purin-3-yl}ethyl)phenol]: the “% Inhibition” value amounted to 5.0%.
In the case of `CC(C)(C)OC(=O)N1CCCC(CCn2cnc(N)c3nc(Sc4cc5c(cc4Br)OCO5)nc2-3)C1` (stereo not shown) [Example 345, tert-Butyl 3-(2-{6-amino-8-[(6-bromo-1,3-benzodioxol-5-yl)thio]-3H-purin-3-yl}ethyl)piperidine-1-carboxylate], the “% Inhibition” value is 3%.
Still for that read-out and setting: next, `Nc1ncn(CCc2ccccc2C(F)(F)F)c2nc(Sc3cc4c(cc3Br)OCO4)nc1-2` [Example 291, 8-[(6-Bromo-1,3-benzodioxol-5-yl)thio]-3-{2-[2-(trifluoromethyl)phenyl]ethyl}-3H-purin-6-amine]: 0.0%.
Still for that read-out and setting: the figure for `COc1ccc(OC)c(Sc2nc3c(N)ncn(CCc4ccc(N(C)C)cc4)c-3n2)c1` [Example 186, 8-(2,5-dimethoxy-phenylsulfanyl)-3-[2-(4-dimethylamino-phenyl)-ethyl]-3H-purin-6-ylamine] is 0%; for `COc1ccc(OC)c(Sc2nc3c(N)ncn(CCc4cccc(I)c4)c-3n2)c1` [Example 138, 8-(2,5-dimethoxy-phenylsulfanyl)-3-[2-(3-iodo-phenyl)-ethyl]-3H-purin-6-ylamine] it is 0%.
In the case of `COc1ccc(OC)c(Sc2nc3c(N)ncnc3n2CCC2CCCCC2)c1` [Example 169, 9-(2-Cyclohexyl-ethyl)-8-(2,5-dimethoxyphenyl-sulfanyl)-9H-purin-6-ylamine], the “% Inhibition” value is reported as 37%.
Still for that read-out and setting: the figure for `COc1ccc(OC)c(Sc2nc3c(N)ncn(CCC(NC(=O)OC(C)(C)C)C4CC4)c-3n2)c1` (stereo not shown) [Example 665, tert-Butyl(3-{6-amino-8-[(2,5-dimethoxyphenyl)thio]-3H-purin-3-yl}-1-cyclopropylpropyl)carbamate] is 0%; for `Nc1ncn(CCC2CCN(C=O)CC2)c2nc(Sc3cc(OCc4ccccc4)c(OCc4ccccc4)cc3Br)nc1-2` [Example 554, 4-[2-(6-Amino-8-{[4,5-bis (benzyloxy)-2-bromophenyl]thio}-3 H-purin-3-yl)ethyl]piperidine-1-carbaldehyde] it is 0.00%.

The test is the same for the next values; noted with them: BODIPY-GM 10 nM, Hsp90 30 nM.
One may read the IC50 as the concentration that gives 50% inhibition. Low readings indicate inhibition by little substance, high ones a need for much substance. On to `CC(C)N1CCN(CCn2c(Sc3cc4c(cc3Br)OCO4)nc3c(N)ncnc32)CC1` [Example 487, 8-[(6-Bromo-1,3-benzodioxol-5-yl)thio]-9-[2-(4-isopropylpiperazin-1-yl)ethyl]-9H-purin-6-amine], for which the IC50 came out at 900 nM. This lies in the sub-micromolar range.
The compound `COc1ccc(OC)c(Sc2nc3c(N)ncnc3n2CC(c2ccccc2)C(C)C)c1` (stereo not shown) [Example 113, 8-(2,5-Dimethoxy-phenylsulfanyl)-9-(3-methyl-2-phenyl-butyl)-9H-purin-6-ylamine] came in with an IC50 of 550 nM.
In turn, `COc1ccc(OC)c(Sc2nc3c(N)ncnc3n2CCC2CCN(C(C)=O)CC2)c1` [Example 557, 9-[2-(1-Acetylpiperidin-4-yl)ethyl]-8-[(2,5-dimethoxyphenyl)thio]-9 H-purin-6-amine] yielded an IC50 of 1500 nM. Compared with the last compound, the IC50 is about 2.7-fold higher.
Consider `COc1ccc(OC)c(Sc2nc3c(N)ncnc3n2CCc2cccc(F)c2)c1` [Example 37, 8-(2,5-Dimethoxy-phenylsulfanyl)-9-[2-(3-fluoro-phenyl)-ethyl]-9H-purin-6-ylamine], for which the IC50 was 800 nM.
Same read-out and setting: the figure for `CC(C)C[C@H](NC(=O)OC(C)(C)C)C(=O)N1CCC(CCn2c(Sc3cc4c(cc3Br)OCO4)nc3c(N)ncnc32)CC1` [Example 699, tert-Butyl((1S)-1-{[4-(2-{6-amino-8-[(6-bromo-1,3-benzodioxol-5-yl)thio]-9H-purin-9-yl}ethyl)piperidin-1-yl]carbonyl}-3-methylbutyl)carbamate] is 600 nM; for `COc1ccc(OC)c(Sc2nc3c(N)ncnc3n2CCc2cccc3ccccc23)c1` [Example 67, 8-(2,5-Dimethoxy-phenylsulfanyl)-9-(2-naphthalen-1-yl-ethyl)-9H-purin-6-ylamine] it is 1500 nM.
On to `Nc1ncn(CCC2CCCCC2)c2nc(Sc3cc4c(cc3Br)OCO4)nc1-2` [Example 174, 8-(6-bromo-benzo[1,3]dioxol-5-ylsulfanyl)-3-(2-cyclohexyl-ethyl)-3H-purin-6-ylamine], for which the IC50 was > 25000 nM.
The compound `COc1ccc(Sc2nc3c(N)ncnc3n2CCc2ccccc2)c(OC)c1` [Example 15, 8-(2,4-Dimethoxy-phenylsulfanyl)-9-phenethyl-9H-purin-6-ylamine] showed an IC50 of 6500 nM.
Same read-out and setting: next, `CC(C)[C@H](NC(=O)OC(C)(C)C)C(=O)N1CCCC(CCn2c(Sc3cc4c(cc3Br)OCO4)nc3c(N)ncnc32)C1` (stereo partly drawn) [Example 697, tert-Butyl((1S)-1-{[3-(2-{6-amino-8-[(6-bromo-1,3-benzodioxol-5-yl)thio]-9H-purin-9-yl}ethyl)piperidin-1-yl]carbonyl}-2-methylpropyl)-carbamate]: 600 nM; `COc1cc(C#N)c(Sc2nc3c(N)ncn(CCC4CCN(C(C)=O)CC4)c-3n2)cc1OC` [Example 623, 2-({3-[2-(1-Acetylpiperidin-4-yl)ethyl]-6-amino-3 H-purin-8-yl}thio)-4,5-dimethoxybenzonitrile]: > 4000 nM; `COc1ccc(OC)c(Sc2nc3c(N)ncnc3n2CCC2(F)C(F)(F)C(F)(F)C(F)(F)C(F)(F)C2(F)F)c1` [Example 384, 8-[(2,5-Dimethoxyphenyl)thio]-9-[2-(undecafluorocyclohexyl)ethyl]-9H-purin-6-amine]: > 1000 nM.
Still for that read-out and setting: next, `C=Cn1c(Sc2cc3c(cc2Br)OCO3)nc2c(N)ncnc21` [Example 498, 8-(6-bromo-benzo[1,3]dioxol-5-ylsulfanyl)-9-vinyl-9H-6-ylamine]: 525 nM; `COc1ccc(OC)c(Sc2nc3c(N)ncnc3n2CC(c2ccccc2)C2CCCC2)c1` (stereo not shown) [Example 103, 9-(2-Cyclopentyl-2-phenyl-ethyl)-8-(2,5-dimethoxy-phenylsulfanyl)-9H-purin-6-ylamine]: > 1000 nM.
In turn, `CC(C)(C)OC(=O)N1C=C(CCn2c(Sc3cc4c(cc3Br)OCO4)nc3c(N)ncnc32)CCC1` [Example 462, tert-Butyl 5-(2-{6-amino-8-[(6-bromo-1,3-benzodioxol-5-yl)thio]-9H-purin-9-yl}ethyl)-3,4-dihydropyridine-1(2 H)-carboxylate] displayed an IC50 of 7900 nM.
The same measure, in the same setting: next, `N=C(N)N1CCC(CCn2c(Sc3cc4c(cc3Br)OCO4)nc3c(N)ncnc32)CC1` [Example 616, 4-(2-{6-Amino-8-[(6-bromo-1,3-benzodioxol-5-yl)thio]-9 H-purin-9-yl}ethyl)piperidine-1-carboximidamide]: 90 nM.
As to `COc1ccc(OC)c(Sc2nc3c(N)ncnc3n2CCc2cccc(C(F)(F)F)c2)c1` [Example 79, 8-(2,5-Dimethoxy-phenylsulfanyl)-9-[2-(3-trifluoromethyl-phenyl)-ethyl]-9H-purin-6-ylamine], the IC50 turned out to be 300 nM.
Take `COc1ccc(OC)c(Sc2nc3c(N)ncn(CCc4ccc(F)cc4)c-3n2)c1` [Example 10, 8-(2,5-dimethoxy-phenylsulfanyl)-3-[2-(4-fluoro-phenyl)-ethyl]-3H-purin-6-ylamine]: the IC50 is > 50000 nM.
The same measure, in the same setting: next, `COc1ccc(OC)c(Sc2nc3c(N)ncnc3n2CCC2CCCCC2)c1` [Example 169, 9-(2-Cyclohexyl-ethyl)-8-(2,5-dimethoxyphenyl-sulfanyl)-9H-purin-6-ylamine]: 470 nM; `Nc1ncnc2c1nc(Sc1ncccc1Br)n2CCC1CCN(C=O)CC1` [Example 550, 4-(2-{6-Amino-8-[(3-bromopyridin-2-yl)thio]-9 H-purin-9-yl}ethyl)piperidine-1-carbaldehyde]: > 5000 nM.
The same measure, in the same setting: next, `COc1ccc(C#N)cc1Sc1nc2c(N)ncnc2n1CCc1ccccc1` [Example 304, 3-{[6-Amino-9-(2-phenylethyl)-9H-purin-8-yl]thio}-4-methoxybenzonitrile]: > 25000 nM.
The same measure, in the same setting: next, `Nc1ncnc2c1nc(Sc1cc3c(cc1Br)OCO3)n2CCc1ccccc1Cl` [Example 53, 8-(6-Bromo-benzo[1,3]dioxol-5-ylsulfanyl)-9-[2-(2-chloro-phenyl)-ethyl]-9H-purin-6-ylamine]: 45 nM; `COc1cc(I)c(Sc2nc3c(N)ncnc3n2CCc2ccccc2Cl)cc1OC` [Example 261, 9-[2-(2-Chlorophenyl)ethyl]-8-[(2-iodo-4,5-dimethoxyphenyl)thio]-9H-purin-6-amine]: > 25000 nM.
`CC(C)[C@@H]1C[C@H](CCn2c(Sc3cc4c(cc3Br)OCO4)nc3c(N)ncnc32)CCN1C(=O)OC(C)(C)C` (relative stereo) [Example 429, tert-Butyl cis-4-(2-{6-amino-8-[(6-bromo-1,3-benzodioxol-5-yl)thio]-9H-purin-9-yl}ethyl)-2-isopropylpiperidine-1-carboxylate] came in with an IC50 of 3800 nM. This lies in the single-digit micromolar range.

These data come from patent publication US7595401B2, “Therapeutic compounds and their use in cancer” (Myriad Pharmaceuticals, Inc., priority 2006, dated 2009).
